Source: patent USRE47689E1, “Compounds for treating spinal muscular atrophy” (PTC Therapeutics, Inc., priority 2011, dated 2019)
Like-named read-outs stand apart in the source and are kept apart here.

Experiments:
Smn protein = Smn protein assay in cultured cells (SMN HTRF); type: cell-based, human; conditions: 48 hours; for maximum fold (Fold) increase of Smn protein: SMA patient fibroblast cells, 7-point concentration data, fold increase relative to vehicle control (SMN HTRF); for EC1.5x (concentration giving 1.5-fold Smn protein increase): SMA Type 1 patient fibroblast cells (GM03813), 7-point concentration curve, SMN HTRF, concentration producing 1.5 times Smn protein vs DMSO vehicle control, read-out: EC1.5x for Smn protein expression
Summary of the method: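 Lysates in RIPA with protease inhibitors are incubated overnight at room temperature with HTRF anti-SMN antibodies. EC1.5x is derived from fold increase in ΔF over vehicle.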

[1] = tested on: SMN2 minigene (full length SMN2 minigene mRNA containing SMN2 exon 7); assay: SMN2 minigene mRNA splicing RT-qPCR assay in cultured cells; type: cell-based, human; conditions: Homo sapiens, HEK293-H, read-out: EC1.5x for production of full length SMN2 mRNA
Summary of the method: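 Read-out: full-length (exon 7-included) SMN2 minigene mRNA by multiplex RT-qPCR with GAPDH, efficiency-corrected (1+E)^−Ct, GAPDH-normalized and divided by vehicle. Stably transfected HEK293H cells, 24 h compound exposure, duplicates per concentration. Value is EC1.5x, reported as star ranges.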

[2] = HEK293H cells stably transfected with SMN2-A minigene, 24 hours, 7-point concentration curve, 1.5-fold relative to vehicle-treated cells

| SMILES | melting point [°C] | maximum fold (Fold) increase of Smn protein (Smn protein) | EC (1.5-fold) [1, 2] [µM] | EC (1.5-fold) ([1]; 24 h) [µM] | EC1.5x (concentration giving 1.5-fold Smn protein increase) (Smn protein) [nM] |
| --- | --- | --- | --- | --- | --- |
| O=c1oc2cc(N3CCN4CCC3CC4)ccc2cc1-c1cn2cccc(F)c2n1 [Compound 501, 7-(1,4-diazabicyclo[3.2.2]non-4-yl)-3-(8-fluoroimidazo[1,2-a]pyridin-2-yl)-2H-chromen-2-one] | 175 to 178 | ** (fold increase between >1.2 and ≤1.35) |  | 0.1 to 0.3 |  |
| Cc1ccc2nc(-c3cc4ccc(O[C@@H]5CCNC5)cc4oc3=O)cn2c1.Cl.Cl [Compound 326, 3-(6-methylimidazo[1,2-a]pyridin-2-yl)-7-[(3R)-pyrrolidin-3-yloxy]-2H-chromen-2-one hydrochloride (1:2)] | 261 to 265 | ** (fold increase between >1.2 and ≤1.35) | 0.1 to 0.3 |  |  |
| C[C@@H]1CN(c2ccc3cc(-c4cn5cc(Cl)sc5n4)c(=O)oc3c2)C[C@H](C)N1 [Compound 473, 3-(2-chloroimidazo[2,1-b][1,3]thiazol-6-yl)-7-[(3R,5S)-3,5-dimethylpiperazin-1-yl]-2H-chromen-2-one] | 270 to 273 | ** (fold increase between >1.2 and ≤1.35) | 0.1 to 0.3 |  |  |
| C[C@@H]1CN(c2cc(F)c3cc(-c4cn5cccnc5n4)c(=O)oc3c2)C[C@H](C)N1 [Compound 352, 7-[(3R,5S)-3,5-dimethylpiperazin-1-yl]-5-fluoro-3-(imidazo[1,2-a]pyrimidin-2-yl)-2H-chromen-2-one] | 290 to 292 | * (maximum fold increase of ≤1.2) | 0.1 to 0.3 |  |  |
| O=c1oc2cc(N3CCNCC3)cc(F)c2cc1-c1nc2ccccc2o1 [Compound 159, 3-(1,3-benzoxazol-2-yl)-5-fluoro-7-(piperazin-1-yl)-2H-chromen-2-one] | 245 to 250 | *** (fold increase between >1.35 and ≤1.5) | 0.3 to 1 |  |  |
| CSc1nccn2cc(-c3cc4ccc(N5C[C@@H](C)N[C@@H](C)C5)cc4oc3=O)nc12 [Compound 400, 7-[(3R,5S)-3,5-dimethylpiperazin-1-yl]-3-[8-(methylsulfanyl)imidazo[1,2-a]pyrazin-2-yl]-2H-chromen-2-one] | 283 to 285 | * (maximum fold increase of ≤1.2) | 3 to 30 |  |  |
| Cc1csc(-c2cc3ccc(N4CCCN(C)CC4)cc3oc2=O)n1 [Compound 285, 7-(4-methyl-1,4-diazepan-1-yl)-3-(4-methyl-1,3-thiazol-2-yl)-2H-chromen-2-one] | 190 to 200 | * (maximum fold increase of ≤1.2) | 1 to 3 |  |  |
| Cc1cnc2nc(-c3cc4ccc(N5CCN[C@H](C)C5)cc4oc3=O)cn2c1 [Compound 463, 3-(6-methylimidazo[1,2-a]pyrimidin-2-yl)-7-[(3R)-3-methylpiperazin-1-yl]-2H-chromen-2-one] | 258 to 261 | * (maximum fold increase of ≤1.2) | 0.1 to 0.3 |  |  |
| CN1CCCN(c2ccc3cc(-c4cn5cccc(Cl)c5n4)c(=O)oc3c2)CC1 [Compound 280, 3-(8-chloroimidazo[1,2-a]pyridin-2-yl)-7-(4-methyl-1,4-diazepan-1-yl)-2H-chromen-2-one] | 161 to 163 | *** (fold increase between >1.35 and ≤1.5) | 0.1 to 0.3 |  |  |
| C[C@@H]1CN(c2ccc3cc(-c4cn5cc(Cl)cnc5n4)c(=O)oc3c2)CCN1 [Compound 350, 3-(6-chloroimidazo[1,2-a]pyrimidin-2-yl)-7-[(3R)-3-methylpiperazin-1-yl]-2H-chromen-2-one] | 255 to 259 | * (maximum fold increase of ≤1.2) | 1 to 3 |  |  |
| Cc1cc(Cl)cn2cc(-c3cc4ccc(N5CCN(C)CC5)cc4oc3=O)nc12 [Compound 264, 3-(6-chloro-8-methylimidazo[1,2-a]pyridin-2-yl)-7-(4-methylpiperazin-1-yl)-2H-chromen-2-one] | 238 | * (maximum fold increase of ≤1.2) | 1 to 3 |  |  |
| O=c1oc2cc(N3CCNCC3)ccc2cc1-c1cccs1 [Compound 363, 7-(piperazin-1-yl)-3-(thiophen-2-yl)-2H-chromen-2-one] | 193 to 195 | ** (fold increase between >1.2 and ≤1.35) |  | 1 to 3 |  |
| Cc1ccc2nc(-c3cc4ccc(CNC(C)CO)cc4oc3=O)cn2c1 (stereo not shown) [Compound 251, 7-{[(1-hydroxypropan-2-yl)amino]methyl}-3-(6-methylimidazo[1,2-a]pyridin-2-yl)-2H-chromen-2-one] | 224 to 227 | * (maximum fold increase of ≤1.2) | 3 to 30 |  |  |
| CN1CCN(c2ccc3cc(-c4cn5cccc(C(F)(F)F)c5n4)c(=O)oc3c2)CC1 [Compound 210, 7-(4-methylpiperazin-1-yl)-3-[8-(trifluoromethyl)imidazo[1,2-a]pyridin-2-yl]-2H-chromen-2-one] | 235 to 237 | * (maximum fold increase of ≤1.2) | 0.3 to 1 |  |  |

Second part, led by results:

| melting point [°C] | SMILES | maximum fold (Fold) increase of Smn protein (Smn protein) | EC (1.5-fold) [1, 2] [µM] | EC (1.5-fold) ([1]; 24 h) [µM] | EC1.5x (concentration giving 1.5-fold Smn protein increase) (Smn protein) [nM] |
| --- | --- | --- | --- | --- | --- |
| 149 to 151 | C[C@H]1CN(c2ccc3cc(-c4cccc(Cl)c4)c(=O)oc3c2)CCN1 [Compound 509, 3-(3-chlorophenyl)-7-[(3S)-3-methylpiperazin-1-yl]-2H-chromen-2-one] | * (maximum fold increase of ≤1.2) | 1 to 3 |  |  |
| 224 to 229 | Cc1cn2cc(-c3cc4ccc(C5CCNCC5)cc4oc3=O)nc2c(C)n1 [Cpd 742, 3-(6,8-dimethylimidazo[1,2-a]pyrazin-2-yl)-7-(piperidin-4-yl)-2H-chromen-2-one] | ***** (fold increase >1.65) | < 0.1 |  | < 300 |
| 209 to 212 | Cc1cn2cc(-c3cc4ccc(N5CCC(N(CCO)CCO)CC5)cc4oc3=O)nc2c(C)n1 [Compound 928, 7-{4-[bis(2-hydroxyethyl)amino]piperidin-1-yl}-3-(6,8-dimethylimidazo[1,2-a]pyrazin-2-yl)-2H-chromen-2-one] | *** (fold increase between >1.35 and ≤1.5) | 0.1 to 0.3 |  |  |
| 264 to 266 | Cc1nccn2cc(-c3cc4ccc(N5CCNCC5)cc4oc3=O)cc12 [Compound 555, 3-(1-methylpyrrolo[1,2-a]pyrazin-7-yl)-7-(piperazin-1-yl)-2H-chromen-2-one] | **** (fold increase between >1.5 and ≤1.65) | 0.1 to 0.3 |  | < 300 |
| 175 to 177 | CCN1CCC(Oc2ccc3cc(-c4cn5cc(C)nc(C)c5n4)c(=O)oc3c2)CC1 [Compound 898, 3-(6,8-dimethylimidazo[1,2-a]pyrazin-2-yl)-7-[(1-ethylpiperidin-4-yl)oxy]-2H-chromen-2-one] | ***** (fold increase >1.65) | < 0.1 |  | < 300 |
| 200 to 210 | Cc1cn2cc(-c3cc4ccc(N5C[C@@H]6CCCN(CCO)[C@@H]6C5)cc4oc3=O)nc2c(C)n1 [Compound 796, 3-(6,8-dimethylimidazo[1,2-a]pyrazin-2-yl)-7-[(4aS,7aS)-1-(2-hydroxyethyl)octahydro-6H-pyrrolo[3,4-b]pyridin-6-yl]-2H-chromen-2-one] | **** (fold increase between >1.5 and ≤1.65) | < 0.1 |  | 300 to 1000 |
| 203 to 205 | Cc1cc2cc(-c3cc4ccc(N5CCN6CCC[C@H]6C5)cc4oc3=O)oc2c(C)n1 [Compound 745, 3-(5,7-dimethylfuro[2,3-c]pyridin-2-yl)-7-[(8aS)-hexahydropyrrolo[1,2-a]pyrazin-2(1H)-yl]-2H-chromen-2-one] | ***** (fold increase >1.65) | < 0.1 |  | < 300 |
| 211 to 215 | Cc1cn2cc(-c3cc4ccc(N5CCN(C)[C@@H](C)C5)cc4oc3=O)nc2c(C)n1 [Compound 672, 3-(6,8-dimethylimidazo[1,2-a]pyrazin-2-yl)-7-[(3S)-3,4-dimethylpiperazin-1-yl]-2H-chromen-2-one] | **** (fold increase between >1.5 and ≤1.65) | < 0.1 |  | < 300 |
| 212 to 218 | Cc1nc(Cl)cn2cc(-c3cc4ccc(N5CCCN(C)CC5)cc4oc3=O)nc12 [Cpd 712, 3-(6-chloro-8-methylimidazo[1,2-a]pyrazin-2-yl)-7-(4-methyl-1,4-diazepan-1-yl)-2H-chromen-2-one] | ** (fold increase between >1.2 and ≤1.35) | < 0.1 |  |  |
| 185 to 188 | Cc1cn2cc(-c3cc4ccc(OCCN[C@H](C)CO)cc4oc3=O)nc2c(C)n1 [Compound 946, 3-(6,8-dimethylimidazo[1,2-a]pyrazin-2-yl)-7-(2-{[(2R)-1-hydroxypropan-2-yl]amino}ethoxy)-2H-chromen-2-one] | **** (fold increase between >1.5 and ≤1.65) | < 0.1 |  | < 300 |
